Test results as given in ChEMBL document CHEMBL4316605, “3-Acyltetramic acids as a novel class of inhibitors for human kallikreins 5 and 7” (Bioorg Med Chem Lett, 2019).

Tests used:
Kallikrein-7 [1] = target: T1, Kallikrein-7 (Homo sapiens, UniProt P49862); assay: Inhibition of human KLK7 assessed as reduction in enzyme activity
Target sequence in this assay (P49862 whole entry): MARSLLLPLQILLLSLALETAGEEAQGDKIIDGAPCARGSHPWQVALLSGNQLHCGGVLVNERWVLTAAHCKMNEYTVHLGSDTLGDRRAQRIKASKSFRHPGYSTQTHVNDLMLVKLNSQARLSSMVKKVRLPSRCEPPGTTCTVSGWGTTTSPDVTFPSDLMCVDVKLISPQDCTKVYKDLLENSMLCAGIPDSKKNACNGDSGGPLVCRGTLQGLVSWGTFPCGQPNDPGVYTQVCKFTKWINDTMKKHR

Kallikrein-5 = target: T2, Kallikrein-5 (Homo sapiens, UniProt Q9Y337); assay: Inhibition of human KLK5 assessed as reduction in enzyme activity
T2 sequence (Q9Y337 whole entry): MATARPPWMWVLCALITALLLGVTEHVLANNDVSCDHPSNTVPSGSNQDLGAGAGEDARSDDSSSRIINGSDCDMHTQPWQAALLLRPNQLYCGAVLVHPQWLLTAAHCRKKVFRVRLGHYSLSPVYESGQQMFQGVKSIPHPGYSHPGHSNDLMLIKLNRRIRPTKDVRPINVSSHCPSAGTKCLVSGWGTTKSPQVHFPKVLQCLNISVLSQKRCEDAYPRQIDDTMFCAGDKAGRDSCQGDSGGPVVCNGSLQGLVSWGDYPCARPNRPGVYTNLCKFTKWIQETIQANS

Kallikrein-7 [2] = target: T1, Kallikrein-7; assay: Inhibition of human KLK7 assessed as residual enzyme activity at 10 uM
Target sequence in this assay (P49862 30-253 limits assumed): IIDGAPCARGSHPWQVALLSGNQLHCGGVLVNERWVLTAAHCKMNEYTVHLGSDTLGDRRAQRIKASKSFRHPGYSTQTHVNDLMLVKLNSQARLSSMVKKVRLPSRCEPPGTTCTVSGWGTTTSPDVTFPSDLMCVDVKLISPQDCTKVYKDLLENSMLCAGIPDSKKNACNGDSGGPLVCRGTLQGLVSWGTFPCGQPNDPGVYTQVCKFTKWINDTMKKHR

[3] = target: Kallikrein-5 (Homo sapiens) (UniProt Q9Y337); assay: Inhibition of human KLK5 assessed as residual enzyme activity at 10 uM
Trypsin [4] = target: T3, Trypsin (Homo sapiens, UniProt P07477+P07478+P35030); assay: Inhibition of trypsin (unknown origin) assessed as residual enzyme activity at 10 uM; type: protein assay
Trypsin [5] = target: T3, Trypsin; assay: Inhibition of trypsin (unknown origin) assessed as reduction in enzyme activity; type: protein assay
[6] = target: Chymotrypsin (Homo sapiens) (UniProt Q99895+P17538+P40313+Q6GPI1); assay: Inhibition of Chymotrypsin (unknown origin) assessed as residual enzyme activity at 10 uM; type: protein assay

Compound	IC50 (Kallikrein-7 [1])	IC50 (Kallikrein-5)	Activity (Kallikrein-7 [2])	Activity [3]	Activity (Trypsin [4])	IC50 (Trypsin [5])	Activity [6]
CCCCCCCC/C=C\CCCCCCC/C(O)=C1/C(=O)[C@H](Cc2ccccc2)N(C(=O)OC(C)(C)C)C1=O	2.5 µM	1.8 µM	0%	0%	5%	2.3 µM	87%
CCCCC/C=C\C/C=C\CCCCCCC/C(O)=C1/C(=O)[C@H](Cc2ccccc2)N(C(=O)OC(C)(C)C)C1=O	14 µM	14 µM	50%	50%			
CC/C(O)=C1/C(=O)[C@H](Cc2ccccc2)N(C(=O)OC(C)(C)C)C1=O	11 µM		50%	80%			
CCCC(C)/C(O)=C1/C(=O)[C@H](Cc2ccccc2)N(C(=O)OC(C)(C)C)C1=O (some centres not stated)	2.5 µM	8 µM	0%	0%			
CC(C)C/C(O)=C1/C(=O)[C@H](Cc2ccccc2)N(C(=O)OC(C)(C)C)C1=O			70%	80%			

Next, values leading:

IC50 (Kallikrein-7 [1])	IC50 (Kallikrein-5)	Activity (Kallikrein-7 [2])	Activity [3]	Activity (Trypsin [4])	IC50 (Trypsin [5])	Activity [6]	Compound
2.8 µM	17 µM	0%	0%				CCCCCCCCCCCCCCCCC/C(O)=C1/C(=O)[C@H](Cc2ccccc2)N(C(=O)OC(C)(C)C)C1=O
2.3 µM	3.6 µM	0%	0%	10%	2.1 µM	98%	CCCCCCCCCCC/C(O)=C1/C(=O)[C@H](Cc2ccccc2)N(C(=O)OC(C)(C)C)C1=O
1.7 µM	4.9 µM	0%	0%	20%	2.4 µM	90%	CCCCCCCCCCCCC/C(O)=C1/C(=O)[C@H](Cc2ccccc2)N(C(=O)OC(C)(C)C)C1=O
2.9 µM	12 µM	0%	0%				CCCCCCCCCCCCCCC/C(O)=C1/C(=O)[C@H](Cc2ccccc2)N(C(=O)OC(C)(C)C)C1=O
